Molecular target: T1, rat D9D (Rattus norvegicus, UniProt P07308)
T1 construct: using hepatic microsomes prepared from SD rats; from tissue; host or cells: liver microsomes of SD rats (CLEA, Japan)
T1 sequence (P07308 1-358): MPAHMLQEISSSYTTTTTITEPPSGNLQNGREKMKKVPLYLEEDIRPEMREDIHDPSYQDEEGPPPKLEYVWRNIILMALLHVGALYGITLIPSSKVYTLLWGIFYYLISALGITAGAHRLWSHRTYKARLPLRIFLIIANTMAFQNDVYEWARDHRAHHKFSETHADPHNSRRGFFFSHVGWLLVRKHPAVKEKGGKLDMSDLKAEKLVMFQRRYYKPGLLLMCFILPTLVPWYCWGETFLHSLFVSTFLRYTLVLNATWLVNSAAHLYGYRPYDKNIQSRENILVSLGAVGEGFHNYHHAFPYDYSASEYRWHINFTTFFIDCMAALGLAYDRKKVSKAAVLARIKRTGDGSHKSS
Experiment: In vitro enzyme assay for desaturase activity (hepatic microsomes), D9D
Assay type: biochemical
Method: Therefore, we also confirmed that compound-326 has no effect on D9D activity. Inhibitory activity of compound-326 on rat D5D, D6D, and D9D was evaluated using hepatic microsomes prepared from SD rats (CLEA, Japan) as described previously. Assays were performed in a total volume of 30 μL in 96-well plates in a buffer containing 100 mM NaHPO4, 150 mM KCl, 10 mM NaF, 1.5 mM glutathione, 3 mM MgCl2, 1 mM NADH, 3 mM ATP, 0.3 mM CoA-SH, and 0.1% fatty acid free bovine serum albumin (BSA, Sigma, St. Louis, MO); and 0.1 μCi/well of [^14C] DGLA or [^14C] linoleic acids (ARC, St. Louis, MO) were used as substrates for measuring D5D and D6D activities, respectively. After pre-incubation of the test compound with rat liver microsomes (final 1.0 mg/mL) for 5 min, the reaction was started by the addition of NADH, ATP, and the substrates, and the reaction mixture was incubated for another 120 min at room temperature. For D9D assay, [^14C] stearoyl-CoA (PerkinElmer, Waltham, MA) was used in the absence of NADH, ATP, and CoA-SH, and D9D enzyme reaction was performed for 30 min. The reactions were then terminated by the addition of 0.63 N NaOH. […] 2.3 (Fujifilm) and IC50 values were determined using the conversion ratio from the radioactive substrates (20:3n6, 18:2n6 and 18:0) to the products (20:4n6, 18:3n6 and 18:1n9).

O=C1Cc2c(nc(OCC(F)(F)C(F)(F)F)n(-c3ccc(OCC(F)(F)F)cc3)c2=O)N1 [Compound-326, 2-(2,2,3,3,3-Pentafluoropropoxy)-3-[4-(2,2,2-trifluoroethoxy)phenyl]-5,7-dihydro-3H-pyrrolo[2,3-d]pyrimidine-4,6-dione]
IC50 (Enzyme (hepatic microsomes), rat): > 10 µM | effect on D9D activity (species not given): no effect

Reference: article PMC5104425, “A Novel Selective Inhibitor of Delta-5 Desaturase Lowers Insulin Resistance and Reduces Body Weight in Diet-Induced Obese C57BL/6J Mice” (PLoS ONE, 2016)
